This note sets out measurements from ChEMBL document CHEMBL3045623, “Pyrazole derivatives as photosynthetic electron transport inhibitors: new leads and structure-activity relationship” (J Agric Food Chem, 2005).

One experiment has as its target Photosystem II protein D1 (Spinacia oleracea, UniProt P69560). Briefly: Inhibition of photosynthetic electron transport at the PSII level in intact chloroplasts from Spinacia oleracea (spinach) leaves assessed as inhibition of in vitro activity by Hill reaction assay.
Details: not given
The pIC50 is −log10 of the IC50, conventionally taken in molar units. Take `Cc1[nH]nc(C(=O)NC2CC2)c1C(=O)O`: the negative logarithm of the IC50 (pIC50) is listed as < 1. The same measure, in the same setting: the same measure for `Cc1c(C(=O)O)c(C(=O)NC(C)(C)C)nn1C(C)(C)C`: < 1.

Staying with this experiment, now noted: read-out: IC50.
Turning to `Cc1onc(C(=O)NC2CC2)c1C(=O)O`, the IC50 was 100 µM.

Regarding `Cc1[nH]nc(C(=O)NC2CC2)c1C(=O)O`, the IC50 was > 100000 µM.

Turning to `Cc1c(C(=O)O)c(C(=O)NC2CC2)nn1C`, the IC50 is 1190 µM. On the same count and under the same terms, the same measure for `Cc1onc(C(=O)NC(C)(C)C)c1C(=O)O`: 290 µM; for `Cc1c(C(=O)O)c(C(=O)NC(C)(C)C)nn1C`: 670 µM. Same read-out and setting: under `Cc1c(C(=O)O)c(C(=O)NC(C)(C)C)nn1-c1ccccc1` stands 7600 µM; under `Cc1c(C(=O)O)c(C(=O)NC(C)(C)C)nn1-c1ccc(Cl)cc1`, 950 µM. Same read-out and setting: under `Cc1c(C(=O)O)c(C(=O)NC(C)(C)C)nn1-c1c(Cl)cc(C(F)(F)F)cc1Cl` stands 1040 µM.

As to `Cc1c(C(=O)O)c(C(=O)NC(C)(C)C)nn1C(C)(C)C`, the IC50 was > 100000 µM. On to `Cc1c(C(=O)O)c(C(=O)NC2CC2)nn1C(C)(C)C`, for which the IC50 worked out at 68000 µM. Still for that read-out and setting: under `Cc1c(C(=O)O)c(C(=O)NC2CC2)nn1-c1ccccc1` stands 22500 µM; under `Cc1c(C(=O)O)c(C(=O)NC2CC2)nn1-c1ccc(Cl)cc1`, 370 µM; under `Cc1c(C(=O)O)c(C(=O)NC2CC2)nn1-c1c(Cl)cc(C(F)(F)F)cc1Cl`, 12200 µM. Same read-out and setting: the same measure for `O=c1sc(Nc2cccc(C(F)(F)F)c2)nc2[nH]ncc12`: 33.2 µM. On the same count and under the same terms, under `O=c1sc(Nc2ccc(Br)cc2)nc2[nH]ncc12` stands 28.5 µM. Take `O=c1sc(Nc2ccc(Cl)cc2)nc2[nH]ncc12`: the IC50 was determined as 38.5 µM. Regarding `O=c1sc(Nc2cccc(Cl)c2)nc2[nH]ncc12`, the IC50 worked out at 48 µM. On the same count and under the same terms, the same measure for `O=c1sc(Nc2ccccc2Cl)nc2[nH]ncc12`: 47.8 µM; for `O=c1sc(Nc2ccc([N+](=O)[O-])cc2)nc2[nH]ncc12`: 1060 µM; for `CCNc1nc2[nH]ncc2c(=O)s1`: 335 µM.

For `CCCCNc1nc2[nH]ncc2c(=O)s1`, the IC50 is 211 µM. Regarding `O=c1sc(NCc2ccccc2)nc2[nH]ncc12`, the IC50 is 10.8 µM. Still for that read-out and setting: under `O=c1sc(NC2CCCCC2)nc2[nH]ncc12` stands 66.5 µM; under `FC(F)(F)c1cccc(Nc2nc3[nH]ncc3c(=S)s2)c1`, 2.78 µM.

In the case of `S=c1sc(Nc2ccc(Br)cc2)nc2[nH]ncc12`, the IC50 came out at 6.06 µM. Still for that read-out and setting: under `S=c1sc(Nc2ccc(Cl)cc2)nc2[nH]ncc12` stands 21.3 µM; under `S=c1sc(Nc2cccc(Cl)c2)nc2[nH]ncc12`, 15.3 µM. Take `S=c1sc(Nc2ccccc2Cl)nc2[nH]ncc12`: the IC50 came out at 43.1 µM.

In the case of `CCNc1nc2[nH]ncc2c(=S)s1`, the IC50 amounted to 10.7 µM. With `CCCCNc1nc2[nH]ncc2c(=S)s1`, the IC50 is 2.67 µM. Turning to `S=c1sc(NCc2ccccc2)nc2[nH]ncc12`, the IC50 turned out to be 2.84 µM.

Take `S=c1sc(NC2CCCCC2)nc2[nH]ncc12`: the IC50 was found to be 0.64 µM.

Still in this experiment, the particulars now being: read-out: pIC50 (converted).
Take `CCC(C)n1c(=O)[nH]c2cc(C)nn2c1=O` (configuration not stated): the IC50 is 2.6 µM. On the same count and under the same terms, the same measure for `CCn1c(=O)[nH]c2cc(C)nn2c1=O`: 32 µM; for `CCCCn1c(=O)[nH]c2cc(C)nn2c1=O`: 6.61 µM. Same read-out and setting: the same measure for `Cc1cc2[nH]c(=O)n(Cc3ccccc3)c(=O)n2n1`: 42 µM. On the same count and under the same terms, under `Cc1cc2[nH]c(=O)n(C3CCCCC3)c(=O)n2n1` stands 0.32 µM; under `Cc1cc2[nH]c(=O)n(-c3ccccc3)c(=O)n2n1`, 169 µM; under `CC/N=c1/sc(=O)[nH]c2cc(C)nn12`, 2.9 µM. Regarding `CCCC/N=c1/sc(=O)[nH]c2cc(C)nn12`, the IC50 is 0.57 µM. Take `Cc1cc2[nH]c(=O)s/c(=N/Cc3ccccc3)n2n1`: the IC50 was 18 µM. The same measure, in the same setting: under `Cc1cc2[nH]c(=O)s/c(=N/C3CCCCC3)n2n1` stands 0.21 µM; under `CN(C)C(=O)Nc1ccc(Cl)c(Cl)c1` [DCMU], 0.27 µM; under `CN(C)c1nc(=O)n(C2CCCCC2)c(=O)n1C` [HEXAZINONE], 0.11 µM. Same read-out and setting: under `O=c1[nH]c2c(c(=O)n1C1CCCCC1)CCC2` [LENACIL] stands 0.08 µM.
